In US20210015098A1, “MOLECULES HAVING PESTICIDAL UTILITY, AND INTERMEDIATES, COMPOSITIONS, AND PROCESSES, RELATED THERETO” (DOW AGROSCIENCES LLC, priority 2018, published 2021):

Experiments:
Format in all cases: in vivo
[1] = system: Beet Armyworm (Spodoptera exigua, LAPHEG); assay: Bioassays on Beet Armyworm (BAW), 128-well diet tray assay; settings: Beet Armyworm, Table ABC Biological Results, read-out: BAW (rating)
Outline: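 Second-instar larvae, one to five per well, were placed on artificial diet surface-treated with 50 μg/cm^2 compound in 90:10 acetone-water, eight wells per treatment. Trays were held 5–7 days at 25 °C, 14:10 light-dark. Percent mortality per well was averaged over eight wells.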

[2] = system: Cabbage Looper (Trichoplusia ni, TRIPNI); assay: Bioassays on Cabbage Looper (CL), 128-well diet tray assay; settings: Cabbage Looper, Table ABC Biological Results, read-out: CL (rating)
Outline: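 Each of eight wells receives artificial diet treated at 50 μg/cm^2 with the test molecule, then one to five second-instar larvae. Incubation runs five to seven days at 25° C with a 14:10 light-dark cycle under vented covers. Mortality is scored per well as a percentage and averaged.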

[3] = system: Yellow Fever Mosquito (Aedes aegypti, AEDSAE); settings: Yellow Fever Mosquito; Table ABC Biological Results
Procedure: Certain molecules disclosed in this document were tested against YFM using procedures described in the following paragraph. In the reporting of the results, the “GPA & YFM Rating Table” was used (See Table Section).
Master plates containing 400 μg of a molecule dissolved in 100 μL of dimethyl sulfoxide (DMSO) (equivalent to a 4000 ppm solution) are used. A master plate of assembled molecules contains 15 μL per well. To this plate, 135 μL of a 90:10 water/acetone mixture is added to each well. A robot (Biomek® NXP Laboratory Automation Workstation) is programmed to dispense 15 μL aspirations from the master plate into an empty 96-well shallow plate (“daughter” plate). There are 6 reps (“daughter” plates) created per master. The created “daughter” plates are then immediately infested with YFM larvae.
The day before plates are to be treated, mosquito eggs are placed in Millipore water containing liver powder to begin hatching (4 g into 400 mL). After the “daughter” plates are created using the robot, they are infested with 220 μL of the liver powder/larval mosquito mixture (about 1 day-old larvae). After plates are infested with mosquito larvae, a non-evaporative lid is used to cover the plate to reduce drying. Plates are held at room temperature for 3 days prior to grading. After 3 days, each well is observed and scored based on mortality. The results are indicated in the table entitled “Table ABC: Biological Results” (See Table Section).

SMILES | pest or weed control at 50 µg/cm2 [1] | pest or weed control at 50 µg/cm2 [2] | YFM (rating) [3]
CCSCC(=O)Nc1c(F)ccc(NC(=O)c2cc(NC(=O)[C@H]3[C@H](c4ccc(F)c(C(F)(F)F)c4)C3(Cl)Cl)ccc2Cl)c1F [F19, 2-Chloro-5-((1R,3R)-2,2-dichloro-3-(4-fluoro-3-(trifluoromethyl)phenyl)cyclopropane-1-carboxamido)-N-(3-(2-(ethylthio)acetamido)-2,4-difluorophenyl)benzamide] | 50 to 100% | 50 to 100% | A (80-100)
O=C(CCSCCC(F)(F)F)Nc1c(F)ccc(NC(=O)c2cc(NC(=O)[C@H]3[C@H](c4ccc(F)c(C(F)(F)F)c4)C3(Cl)Cl)ccc2Cl)c1F [F21, 2-Chloro-5-((1R,3R)-2,2-dichloro-3-(4-fluoro-3-(trifluoromethyl)phenyl)cyclopropane-1-carboxamido)-N-(2,4-difluoro-3-(3-((3,3,3-trifluoropropyl)thio)propanamido)phenyl)benzamide] | 50 to 100% | 50 to 100% | A (80-100)
CCSCCC(=O)Nc1c(F)ccc(NC(=O)c2cc(NC(=O)[C@H]3[C@H](c4ccc(F)c(C(F)(F)F)c4)C3(Cl)Cl)ccc2Cl)c1F [F23, 2-Chloro-5-((1R,3R)-2,2-dichloro-3-(4-fluoro-3-(trifluoromethyl)phenyl)cyclopropane-1-carboxamido)-N-(3-(3-(ethylthio)propanamido)-2,4-difluorophenyl)benzamide] | 50 to 100% | 50 to 100% | A (80-100)
CSCCC(=O)Nc1c(F)ccc(NC(=O)c2cc(NC(=O)[C@H]3[C@H](c4ccc(F)c(C(F)(F)F)c4)C3(Cl)Cl)ccc2Cl)c1F [F24, 2-Chloro-5-((1R,3R)-2,2-dichloro-3-(4-fluoro-3-(trifluoromethyl)phenyl)cyclopropane-1-carboxamido)-N-(2,4-difluoro-3-(3-(methylthio)propanamido)phenyl)benzamide] | 50 to 100% | 50 to 100% | A (80-100)
CSCCCC(=O)Nc1c(F)ccc(NC(=O)c2cc(NC(=O)[C@H]3[C@H](c4ccc(F)c(C(F)(F)F)c4)C3(Cl)Cl)ccc2Cl)c1F [F25, 2-Chloro-5-((1R,3R)-2,2-dichloro-3-(4-fluoro-3-(trifluoromethyl)phenyl)cyclopropane-1-carboxamido)-N-(2,4-difluoro-3-(4-(methylthio)butanamido)phenyl)benzamide] | 50 to 100% | 50 to 100% | A (80-100)
O=C(C[S+]([O-])CC(F)(F)F)Nc1c(F)ccc(NC(=O)c2cc(NC(=O)[C@H]3[C@H](c4ccc(F)c(C(F)(F)F)c4)C3(Cl)Cl)ccc2Cl)c1F (stereo partly drawn) [F32, 2-Chloro-5-((1R,3R)-2,2-dichloro-3-(4-fluoro-3-(trifluoromethyl)phenyl)cyclopropane-1-carboxamido)-N-(2,4-difluoro-3-(2-((2,2,2-trifluoroethyl)sulfinyl)acetamido)phenyl)benzamide] | 50 to 100% | 50 to 100% | A (80-100)
O=C(CCS(=O)(=O)C(F)(F)F)Nc1c(F)ccc(NC(=O)c2cc(NC(=O)[C@H]3[C@H](c4ccc(F)c(C(F)(F)F)c4)C3(Cl)Cl)ccc2Cl)c1F [F46, 2-Chloro-5-((1R,3R)-2,2-dichloro-3-(4-fluoro-3-(trifluoromethyl)phenyl)cyclopropane-1-carboxamido)-N-(2,4-difluoro-3-(3-((trifluoromethyl)sulfonyl)propanamido)phenyl)benzamide] | 50 to 100% | 50 to 100% | A (80-100)
